# Test results from US8420630B2 (Boehringer Ingelheim Pharma GmbH & Co. KG, priority 2001, dated 2013).
# Structures can show the parent of a compound that is named as a salt.
# Molecular target: T1, CDK1/cyclinB1 (Homo sapiens, UniProt P06493)
# T1 construct: made in house; host or cells: High Five insect cells (Trichoplusia ni), baculovirus coinfection
# Assay: Cyclin B1-CDK1 kinase inhibition test
# Format: biochemical
# Details: CDK1 tests (Example 13); recombinant cyclin B1/CDK1, substrate histone H1; read-out: CDK1/cyclinB1 IC50 value
# Method: CDK4) were cloned by standard methods using RT-PCR, and cloned into a transfer vector (cyclin in pAcG2T made by Pharmingen, CDKs in p2Bac made by Invitrogen) for the baculovirus system. […] After thawing the cells were resuspended in lysing buffer (50 mM HEPES pH 7.5, 10 mM MgCl2, 1 mM DTT, 5 μg/ml leupeptin, 5 μg/ml aprotinin, 100 μM NaF, 100 μM PMSF, 10 mM β-glycerolphosphate, 100 μM Na3VO4, 30 mM nitrophenylphosphate, 17.5 ml of lysing buffer per 10^8 cells) and incubated on ice for 30 min. […] Cyclin D1-CDK4 was purified by means of a GST-tag on cyclin D1 and then using glutathione beads (total protein about 0.2 mg/ml). All the kinase tests were carried out in 96-well microtitre plates (Greiner PS) in a final volume of 60 μl. […] As a negative control the kinase reaction was carried out in the absence of the substrate histone H1. As a positive control the kinase reaction was carried out in the absence of a test substance. As an internal control 30 μM and 300 μM (final concentration) of the kinase inhibitor olomoucin (Alexis) were used. […] The kinase reaction is started by the addition of 10 μl of ATP mix (0.045 mM ATP, 0.5 μCi ^33P-ATP in kinase buffer) and incubated for 30 min at 30° C. and 600 rpm in a shaking incubator. After incubation the plates were placed on ice and the proteins were precipitated by the addition of 125 μl of ice-cold 5% trichloroacetic acid. After 15 min on ice the precipitates were transferred onto Packard Unifilter 96 GF/B plates with the Packard Harvester System, and collected by vacuum filtration. The precipitates were washed 4 times with dist. H2O at ambient temperature. The filter plates were then dried at 60° C. and 50 μl of scintillation liquid were added to each well (Ultima Gold, Packard). The plate was sealed up with Sealing Tape and after 1 h measured in a scintillation measuring apparatus (Micro Beta made by Wallac).
# T1 sequence (P06493 whole entry): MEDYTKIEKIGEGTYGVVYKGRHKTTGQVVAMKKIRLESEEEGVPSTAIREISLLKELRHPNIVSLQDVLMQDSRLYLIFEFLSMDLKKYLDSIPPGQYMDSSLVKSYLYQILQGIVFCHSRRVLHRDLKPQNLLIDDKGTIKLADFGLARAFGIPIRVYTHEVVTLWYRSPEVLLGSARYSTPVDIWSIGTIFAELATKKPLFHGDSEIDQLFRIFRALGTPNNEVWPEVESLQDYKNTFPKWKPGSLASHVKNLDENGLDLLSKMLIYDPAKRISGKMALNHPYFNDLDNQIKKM
# T1 sequence (P14635 whole entry partner): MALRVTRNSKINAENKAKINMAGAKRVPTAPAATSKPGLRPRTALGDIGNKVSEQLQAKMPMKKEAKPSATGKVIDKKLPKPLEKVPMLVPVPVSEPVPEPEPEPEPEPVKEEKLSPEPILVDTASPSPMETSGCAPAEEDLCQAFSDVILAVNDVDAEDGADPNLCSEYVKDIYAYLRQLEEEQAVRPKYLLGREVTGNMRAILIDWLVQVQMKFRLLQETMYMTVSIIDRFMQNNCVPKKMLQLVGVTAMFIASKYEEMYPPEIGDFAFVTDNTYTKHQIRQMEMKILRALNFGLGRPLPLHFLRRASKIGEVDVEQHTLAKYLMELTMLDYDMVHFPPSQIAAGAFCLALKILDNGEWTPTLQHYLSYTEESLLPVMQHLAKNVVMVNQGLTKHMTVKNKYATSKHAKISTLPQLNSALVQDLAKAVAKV
row,Structure (SMILES),IC50 [nM]
1,"O=C1CCCN1CCCNc1nc(Nc2ccc(Cl)c(Cl)c2)ncc1Br [Example 1(661), 1-{3-[5-Bromo-2-(3,4-dichloro-phenylamino)-pyrimidin-4-ylamino]-propyl}-pyrrolidin-2-one]",< 100
2,NC(=O)c1ccc(Nc2ncc(Br)c(NCCCN3CCCC3=O)n2)cc1 [Example 1(662)],< 100
3,"CC(=O)NCCNc1nc(Nc2ccc(C(N)=O)cc2)ncc1Br [Example 1(663), 4-[4-(2-acetylamino-ethylamino)-5-bromo-pyrimidin-2-ylamino]-benzamide]",< 100
4,"CN(C)S(=O)(=O)c1ccc(Nc2ncc(C(F)(F)F)c(NCCN3CCCC3=O)n2)cc1 [Example 1(683), N,N-dimethyl-4-{4-[2-(2-oxo-pyrrolidin-1-yl)-ethylamino]-5-trifluoromethyl-pyrimidin-2-ylamino}-phenylsulphonamide]",< 100
5,"CC(=O)NC(C)(C)CNc1nc(Nc2ccc(S(=O)(=O)N3CCOCC3)cc2)ncc1C(F)(F)F [Example 1(685), N-(1,1-dimethyl-2-{2-[4-(morpholine-4-sulphonyl)-phenylamino]-5-trifluoromethyl-pyrimidin-4-ylamino}-ethyl)-acetamide]",< 100
6,"NCCNc1nc(Nc2ccc(S(=O)(=O)N3CCOCC3)cc2)ncc1C(F)(F)F [Example 1(689), N4-(2-amino-ethyl)-N2-[4-(morpholine-4-sulphonyl)-phenyl]-5-trifluoromethyl-pyrimidine-2,4-diamine]",< 100
7,"CC(=O)N(C)CCN(C)c1nc(Nc2ccc(S(=O)(=O)N(C)C)cc2)ncc1C(F)(F)F [Example 1(690), N-(2-{[2-(4-dimethylsulphamoyl-phenylamino)-5-trifluoromethyl-pyrimidin-4-yl]-methyl-amino}-ethyl)-N-methyl-acetamide]",< 100
8,"CC(=O)NCCNc1nc(Nc2ccc(S(=O)(=O)C(C)C)cc2)ncc1C(F)(F)F [Example 1(692), N-(2-{2-[4-(propane-2-sulphonyl)-phenylamino]-5-trifluoromethyl-pyrimidin-4-ylamino}-ethyl)-acetamide]",< 100
9,"NCCCNc1nc(Nc2ccc(C(N)=O)cc2)ncc1C(F)(F)F [Example 1(693), 4-[4-(3-aminopropylamino)-5-trifluoromethyl-pyrimidin-2-ylamino]benzamide]",< 100
10,"CN(C)S(=O)(=O)c1ccc(Nc2ncc(C(F)(F)F)c(N3CCc4nc[nH]c4C3)n2)cc1 [Example 1(694), N,N-dimethyl-4-[4-(3,4,6,7-tetrahydro-imidazo[4,5-c]pyridin-5-yl)-5-trifluoromethyl-pyrimidin-2-ylamino]-phenylsulphonamide]",< 100
11,"O=S(=O)(c1ccc(Nc2ncc(C(F)(F)F)c(N3CCc4nc[nH]c4C3)n2)cc1)N1CCOCC1 [Example 1(695), [4-(Morpholin-4-sulphonyl)-phenyl]-[4-(3,4,6,7-tetrahydro-imidazo[4,5-5]pyridin-5-yl)-5-trifluoromethyl-pyrimidin-2-yl]-amine]",< 100
12,"CC(=O)NCCNc1nc(Nc2ccc(Cl)c(Cl)c2)ncc1Br [Example 2(002), 2-(3,4-dichlorophenylamino)-4-(2-acetylamino-ethylamino)-5-bromo-pyrimidine-hydrochloride]",< 100
13,"CC(=O)NCCNc1nc(Nc2ccc(Cl)c(Cl)c2)ncc1C(F)(F)F [Example 2(003), 2-(3,4-dichlorophenylamino)-4-(2-acetylamino-ethylamino)-5-trifluoromethyl-pyrimidine-hydrochloride]",< 100
14,"CC(=O)NCCNc1nc(Nc2ccc(N)cc2)ncc1C(F)(F)F [Example 2(004), N-{2-[2-(4-amino-phenylamino)-5-trifluoromethyl-pyrimidin-4-ylamino]-ethyl}-acetamide]",< 100
15,"CC(=O)NCCNc1nc(Nc2ccc(Br)cc2)ncc1C(F)(F)F [Example 2(007), 2-(4-bromophenylamino)-4-(2-acetylamino-ethylamino)-5-trifluoromethyl-pyrimidine]",< 100
16,"CC(=O)NCCNc1nc(Nc2ccc(S(N)(=O)=O)cc2)ncc1C(F)(F)F [Example 2(008), 2-(4-aminosulphonyl-phenylamino)-4-(2-acetylamino-ethylamino)-5-trifluoromethyl-pyrimidine]",< 100
17,"CC(=O)NCCNc1nc(Nc2cccc(Cl)c2)ncc1C(F)(F)F [Example 2(009), 2-(3-chloro-phenylamino)-4-(2-acetylamino-ethylamino)-5-trifluoromethyl-pyrimidine]",< 100
18,"CC(=O)NCCNc1nc(Nc2cccc([N+](=O)[O-])c2)ncc1C(F)(F)F [Example 2(010), 2-(3-Nitro-phenylamino)-4-(2-acetylamino-ethylamino)-5-trifluoromethyl-pyrimidine]",< 100

# Next, values leading:
row,IC50 [nM],Structure (SMILES)
1,< 100,"CN1CCC2(CCN(c3nc(Nc4ccc(Cl)c(Cl)c4)ncc3C(F)(F)F)C2)C1 (stereo not drawn) [Example 1(117), 2-(3,4-dichlorophenylamino)-4-(7-methyl-2,7-diaza-spiro[4.4]non-2-yl)-5-trifluoromethyl-pyrimidine]"
2,< 100,"FC(F)(F)c1cnc(Nc2ccccc2)nc1N1CCc2[nH]cnc2C1 [Example 1(118), 2-phenylamino-4-(1,4,6,7-tetrahydro-imidazo[4,5-c]pyridin-5-yl)-5-trifluoromethyl-pyrimidine]"
3,< 100,"O=[N+]([O-])c1cnc(Nc2cccc(Br)c2)nc1N1CCc2[nH]cnc2C1 [Example 1(119), 2-(3-bromophenylamino)-4-(1,4,6,7-tetrahydro-imidazo[4,5-c]pyridin-5-yl)-5-nitro-pyrimidine]"
4,< 100,"CN(C)C1CCC(Nc2nc(Nc3ccc(Cl)c(Cl)c3)ncc2C(F)(F)F)CC1 (stereo not drawn) [Example 1(120), 2-(3,4-dichlorophenylamino)-4-(4-dimethylamino-cyclohexylamino)-5-trifluoromethyl-pyrimidine]"
5,< 100,"FC(F)(F)c1cnc(Nc2ccc3ccccc3c2)nc1N1CCc2[nH]cnc2C1 [Example 1(152), 2-(2-naphthylamino)-4-(1,4,6,7-tetrahydro-imidazo[4,5-c]pyridin-5-yl)-5-trifluoromethyl-pyrimidine]"
6,< 100,"NCCCCNc1nc(Nc2ccc(Cl)c(Cl)c2)ncc1C(F)(F)F [Example 1(304), 2-(3,4-dichlorophenylamino)-4-(4-aminobutylamino)-5-trifluoromethyl-pyrimidine]"
7,< 100,"NCCc1ccccc1CCNc1nc(Nc2ccc(Cl)c(Cl)c2)ncc1C(F)(F)F [Example 1(349), 2-(3,4-dichlorophenylamino)-4-(2-(2-(2-amino-1-ethyl)-phenyl)-1-ethyl-amino)-5-trifluoromethyl-pyrimidine]"
8,< 100,"CC(CC(=O)O)Nc1nc(Nc2ccc(Cl)c(Cl)c2)ncc1C(F)(F)F (stereo not drawn) [Example 1(388), 2-(3,4-dichlorophenylamino)-4-(1-carboxy-2-propylamino)-5-trifluoromethyl-pyrimidine]"
9,< 100,"CC(=O)NCC(C)(C)Nc1nc(Nc2ccc(S(=O)(=O)N3CCOCC3)cc2)ncc1C(F)(F)F [Example 1(585), N-(2-Methyl-2-{2-[4-(morpholin-4-sulphonyl)-phenylamino]-5-trifluoromethyl-pyrimidin-4-ylamino}-propyl)-acetamide]"
10,< 100,"O=[N+]([O-])c1cnc(NCc2ccccc2Br)nc1N1CC[S+]([O-])CC1 [Example 1(628), 2-(2-bromo-benzylamino)-4-(S-oxido-thiomorpholino)-5-nitro-pyrimidine]"
11,< 100,"CC(=O)NCCNc1nc(Nc2cccc(S(=O)(=O)N(C)C)c2)ncc1C(F)(F)F [Example 1(651), N-{2-[2-(3-dimethylsulphamoyl-phenylamino)-5-trifluoromethyl-pyrimidin-4-ylamino]-ethyl}-acetamide]"
12,< 100,"CC(=O)NCCNc1nc(Nc2ccc(S(=O)(=O)N(C)C)cc2)ncc1Br [Example 1(652), N-{2-[5-Bromo-2-(4-dimethylsulphamoyl-phenylamino)-pyrimidin-4-ylamino]-ethyl}-acetamide]"
13,< 100,"CC(=O)NCCNc1nc(Nc2ccc3cnn(C)c3c2)ncc1C(F)(F)F [Example 1(654), N-{2-[2-(1-methyl-1H-indazol-6-ylamino)-5-trifluoromethyl-pyrimidin-4-ylamino]-ethyl}-acetamide]"
14,< 100,"CC(=O)NCCNc1nc(Nc2ccc3c(cnn3C)c2)ncc1C(F)(F)F [Example 1(655), N-{2-[2-(1-methyl-1H-indazol-5-ylamino)-5-trifluoromethyl-pyrimidin-4-ylamino]-ethyl}-acetamide]"
15,< 100,"CC(=O)NCCNc1nc(Nc2ccc3cn(C)nc3c2)ncc1C(F)(F)F [Example 1(656), N-{2-[2-(2-methyl-2H-indazol-6-ylamino)-5-trifluoromethyl-pyrimidin-4-ylamino]-ethyl}-acetamide]"
